# Assay results reported in ChEMBL document CHEMBL1142082, “Oral versus intravenous flucytosine in patients with human immunodeficiency virus-associated cryptococcal meningitis” (Antimicrob Agents Chemother, 2007).
# Legend:
# Homo sapiens [1] = test: Effect on aspartate aminotransferase level in orally dosed HIV associated cryptococcal meningitis patient after 2 weeks relative to baseline; type: functional
# Homo sapiens [2] = test: Effect on platelet count in orally dosed HIV associated cryptococcal meningitis patient relative to control; type: functional
# Homo sapiens [3] = test: Effect on platelet count in orally dosed HIV associated cryptococcal meningitis patient after 2 weeks relative to baseline; type: functional
# Homo sapiens [4] = test: Effect on alanine transferase level in intravenously dosed HIV associated cryptococcal meningitis patient after 2 weeks relative to baseline; type: functional
# Homo sapiens [5] = test: Effect on creatinine clearance in intravenously dosed HIV associated cryptococcal meningitis patient relative to control; type: functional
# Homo sapiens [6] = test: Effect on aspartate aminotransferase level in orally dosed HIV associated cryptococcal meningitis patient relative to control; type: functional
# [7] = Fungicidal activity in intravenously dosed HIV associated cryptococcal meningitis patient; type: functional, Cryptococcus
# Homo sapiens [8] = test: Effect on neutrophils level in orally dosed HIV associated cryptococcal meningitis patient after 2 weeks relative to baseline; type: functional
# [9] = AUC in orally dosed HIV associated cryptococcal meningitis patient at 24 hrs; type: ADME, organism-based; parameters: time < 24 hr, route oral; conditions: human, plasma, po
# Homo sapiens [10] = test: Effect on creatinine clearance in intravenously dosed HIV associated cryptococcal meningitis patient after 2 weeks relative to baseline; type: functional
# Homo sapiens [11] = test: Effect on creatinine clearance in orally dosed HIV associated cryptococcal meningitis patient after 2 weeks relative to baseline; type: functional
# [12] = Fungicidal activity in orally dosed HIV associated cryptococcal meningitis patient; type: functional, Cryptococcus
# Homo sapiens [13] = test: Effect on hemoglobin level in intravenously dosed HIV associated cryptococcal meningitis patient relative to control; type: functional
# [14] = Fungicidal activity in HIV associated Cryptococcal meningitis patient; type: functional, Cryptococcus
# Homo sapiens [15] = test: Effect on platelet count in intravenously dosed HIV associated cryptococcal meningitis patient after 2 weeks relative to baseline; type: functional
# Homo sapiens [16] = test: Effect on aspartate aminotransferase level in intravenously dosed HIV associated cryptococcal meningitis patient after 2 weeks relative to baseline; type: functional
# Homo sapiens [17] = test: Effect on hemoglobin level in intravenously dosed HIV associated cryptococcal meningitis patient after 2 weeks relative to baseline; type: functional
# Homo sapiens [18] = test: Effect on hemoglobin level in orally dosed HIV associated cryptococcal meningitis patient after 2 weeks relative to baseline; type: functional
# Homo sapiens [19] = test: Effect on platelet count in intravenously dosed HIV associated cryptococcal meningitis patient relative to control; type: functional
# Homo sapiens [20] = test: Effect on alanine transferase level in orally dosed HIV associated cryptococcal meningitis patient after 2 weeks relative to baseline; type: functional
# Homo sapiens [21] = test: Effect on neutrophils level in orally dosed HIV associated cryptococcal meningitis patient relative to control; type: functional
# Homo sapiens [22] = test: Effect on alanine transferase level in orally dosed HIV associated cryptococcal meningitis patient relative to control; type: functional
# Homo sapiens [23] = test: Effect on neutrophils level in intravenously dosed HIV associated cryptococcal meningitis patient relative to control; type: functional
# [24] = Clearance in intravenously dosed HIV associated cryptococcal meningitis patient; type: ADME, organism-based; conditions: human, in vivo, iv
# Homo sapiens [25] = test: Effect on creatinine clearance in orally dosed HIV associated cryptococcal meningitis patient relative to control; type: functional
# [26] = Oral clearance in HIV associated cryptococcal meningitis patient; type: ADME, organism-based; conditions: human, in vivo
# Homo sapiens [27] = test: Effect on hemoglobin level in orally dosed HIV associated cryptococcal meningitis patient relative to control; type: functional
# Homo sapiens [28] = test: Effect on alanine transferase level in intravenously dosed HIV associated cryptococcal meningitis patient relative to control; type: functional
# [29] = AUC in intravenously dosed HIV associated cryptococcal meningitis patient at 24 hrs; type: ADME, organism-based; parameters: time < 24 hr, route intravenous; conditions: human, plasma, iv
# Homo sapiens [30] = test: Volume of distribution in orally dosed HIV associated cryptococcal meningitis patient normalized to weight; type: ADME, organism-based; conditions: in vivo, po
# [31] = Volume of distribution in intravenously dosed HIV associated cryptococcal meningitis patient normalized to weight; type: ADME, organism-based; conditions: human, in vivo, iv; read-out: Vdss
# Homo sapiens [32] = test: Effect on aspartate aminotransferase level in intravenously dosed HIV associated cryptococcal meningitis patient relative to control; type: functional
# Homo sapiens [33] = test: Effect on neutrophils level in intravenously dosed HIV associated cryptococcal meningitis patient after 2 weeks relative to baseline; type: functional
smiles,measurement,setting,value
Nc1nc(=O)[nH]cc1F [FLUCYTOSINE],Activity,Homo sapiens [1],69%
same,Activity,Homo sapiens [2],263 10^9/L
same,Activity,Homo sapiens [3],112%
same,Activity,Homo sapiens [4],86%
same,Creatinine_CL,Homo sapiens [5],74 mL/min
same,Activity,Homo sapiens [6],40 U/L
same,log10cfu/day,[7],-0.43
same,Activity,Homo sapiens [8],73%
same,AUC at 24 h,[9],576 µg·h/mL
same,Activity,Homo sapiens [10],76%
same,Activity,Homo sapiens [11],83%
same,log10cfu/day,[12],-0.48
same,Activity,Homo sapiens [13],11.2 g/dL
same,log10cfu/day,[14],-0.46
same,Activity,Homo sapiens [15],83%
same,Activity,Homo sapiens [16],100%
same,Activity,Homo sapiens [17],78%
same,Activity,Homo sapiens [18],70%
same,Activity,Homo sapiens [19],249 10^9/L
same,Activity,Homo sapiens [20],94%
same,Activity,Homo sapiens [21],4.5 10^9/L
same,Activity,Homo sapiens [22],43 U/L
same,Activity,Homo sapiens [23],5.6 10^9/L
same,clearance,[24],63.3 mL/min
same,Creatinine_CL,Homo sapiens [25],75 mL/min
same,CL/F,[26],112 mL/min
same,Activity,Homo sapiens [27],10.6 g/dL
same,Activity,Homo sapiens [28],38 U/L
same,AUC at 24 h,[29],1290 µg·h/mL
same,Vdss,Homo sapiens [30],1.41 L/kg
same,Vd,[31],0.94 L/kg
same,Activity,Homo sapiens [32],33 U/L
same,Activity,Homo sapiens [33],59%
